Source: PMC9154752, “MHC class II molecules on pancreatic cancer cells indicate a potential for neo-antigen-based immunotherapy” (Oncoimmunology, 2022)
Where “and” joins values, the source holds several entries; their conditions need not be identical. Equal entries are not always repeated. Where two headings read alike, the source gives them in different places. Residues, ends and D or L forms follow the SMILES beside them. No end group written: not given here.

Tests used:
CD4+ T-cells = assay: Immunogenicity T-cell assay (intracellular IFN-γ in peptide-stimulated CD4+ T-cells); assay type: cell-based, human; conditions: for Immunogenicity, % of responses: percentage of the 9 donors responding; for Immunogenicity, No of responses: responding donors of 9 HLA-DP4-positive donors, 3 weekly stimulations with mDC pulsed at 10 μg/mL, challenge with peptide-pulsed T2-DP4, intracellular IFN-γ by FACS
Protocol: Immunogenicity of candidate HLA-DP4 neo-epitopes was performed using HLA-matched healthy donors’ autologous PBMCs. Briefly, mature DCs were pulsed with individual neo-epitopes at 10 μg/mL and co-cultured with autologous magnetic-sorted CD4+ T-cells (CD4 Microbeads Human, MACS Miltenyi; #130-045-101) in RPMI with 5% AB human serum (#H4522-100ML; Sigma-Aldrich), 10 units/mL penicillin–streptomycin, 2 mmol/L L-glutamine, 1% nonessential amino acid, IL-6 (#570802; BioLegend) (1000 U/mL) and IL-12 (#573002; BioLegend) (5 ng/mL). IL-2 (#589106; BioLegend) (30 U/mL) and IL-7 (#581902; BioLegend) (5 ng/mL) was added every 2 days. CD4+ T-cells underwent another two rounds of stimulation with peptide-pulsed mature DCs on day 7 and 14. Seven days after the third stimulation, CD4+ T-cells were challenged by overnight incubation with peptide-loaded T2-DP4 cells. As a control, CD4+ T-cells were incubated with T2-DP4 without peptide. Reactivity of the T cells was determined by intracellular IFN-γ (#502515; BioLegend) staining measured by flow cytometry. When Capan-1-derived neo-epitopes were tested, the peptide-stimulated CD4+ T-cells were challenged by overnight incubation with Capan-1 (MHC-II-negative), IFN-γ-treated Capan-1 cells (MHC-II-positive). Supernatants were collected and assessed for LDH (cytotoxicity), IFN-γ, granzyme B and granulysin. Where indicated, purified endotoxin-free anti-MHC class II (clone TÜ39; #555556; BD Bioscience, Chicago, IL, USA) antibodies were added to the co-cultures at 10 μg/mL.
(§1) For cell surface labeling, cell suspensions were incubated with antibodies for 30 min at room temperature. For intracellular staining, cells were fixed and permeabilized using a Leucoperm kit (Bio-Rad; #BUF09C) in accordance with the manufacturer’s guidelines. Prior to intracellular staining with anti-IFN-γ, cells were incubated overnight in the presence of 5 microgram per mL brefeldin A (Sigma-Aldrich; #B6542-5 MG). Cell viability was analyzed by Ethidium homodimer 1 and calcein-AM double-staining using LIVE/DEAD® Viability/Cytotoxicity Kit, for mammalian cells according to the manufacturer’s instructions (#L3224; Invitrogen). Flow cytometry was done using a FACSCalibur (Becton Dickinson, Heidelberg, Germany) or BD LSRII (Becton Dickinson) flow cytometer. The data were processed with the CellQuest software (Becton Dickinson, Heidelberg, Germany) and analyzed with the WinMDi 2.9 (Purdue University, USA).

PDAC cell lines = assay: MHC-II surface expression on PDAC cell lines by flow cytometry; assay type: cell-based, human; conditions: 48 h; for MHC-II expression, agent alone / MHC-II expression, treatment together with IFN-γ: 8988 T, FA6 and MiaPaca-2 cells; for MHC-II expression, treatment together with IFN-γ: IFN-γ 50 ng/mL
Protocol: All PDAC cell lines were stimulated with 50 ng/mL of the human recombinant IFN-γ (#570206; BioLegend) in T75 culture flasks for 48 h. As negative control, we co-incubated the cell lines in the medium alone. Where inhibitors were used, trametinib (#S2673; Selleckchem) or trichostatin A (TSA) (#T8552-1 MG; Sigma-Aldrich) at the indicated concentrations were added into the cultures with or without IFN-γ. After incubation, the cells were removed from the flasks by treatment with trypsin, cell suspensions were prepared and cells were stained with purified mouse IgG antibodies to CLIP (clone CerCLIP.1; #ab22606; Abcam, Cambridge, UK), and HLA-DR, DP, DQ (clone Tü39; #555556; BD) or isotype control (mouse IgG2a; #554645; BD) followed by Alexa Fluor 488-conjugated anti-mouse IgG, and APC-conjugated anti-PD-L1 (clone 29E.2A3; #329708; BioLegend) and processed for flow cytometry analysis.
as §1

MiaPaca-2 cells = assay: CD4+ T-cell recognition of MiaPaca-2 cells (granzyme B ELISA); assay type: cell-based, human; conditions: MHC-II induced by IFN-γ in conjunction with trametinib; overnight, T-cell:tumor 5:1, granzyme B ELISA, 4 donors
Protocol: Figure 8. Trametinib and TSA enhance responsiveness to IFN-γ in PDAC cells. (A) 8988 T, FA6 and MiaPaca-2 cells were treated with IFN-γ or left untreated, in the presence or absence of the MEK inhibitor, trametinib and/or histone deacetylase inhibitor TSA at the indicated concentrations for 48 hours. The cells were then collected, stained with anti-MHC-II antibodies and analyzed by flow cytometry. All flow cytometry data were gated on viable, singlets and MFI values for MHC-II were normalized to the untreated cells (none). Data are from three independent experiments. (B) Allogenic activated CD4+ T-cells from 4 healthy donors were incubated overnight with MiaPaca-2 cells (T-cell:tumor ratio 5:1). Where indicated, the cultures were treated with blocking antibodies or isotype control (IgG). […] All data were analyzed by one-way ANOVA; * P < 0.05; ** p < 0.01; *** p < 0.001; **** p < 0.0001. […]
The cytokine IFN-γ and the cytolytic molecules granulysin and granzyme B were detected in supernatants of T-cell/tumor cell co-cultures using commercial ELISA kits (Human IFN gamma ELISA Ready-SET-Go!®, #88-7316-76, Affymetrix eBioscience; Human Granulysin DuoSet ELISA, #DY3138; and Human Granzyme B DuoSet ELISA, #DY2906-05, R&D Systems) in 96-well microtiter plates (Nunc Maxisorp, Rochester, NY, USA) following the manufacturer’s instructions.

HLA-DP4 = target: T1, HLA-DP4 (Homo sapiens, UniProt P04440+P20036); assay: Cell-based competitive MHC-II binding assay with T2-DP4 cells
T1 construct: expressed in transfected cells; host or cells: T2 lymphoblastoid cell line transfected with HLA-DP4 (T2-DP4), gift of Prof; Naoto Hirano, University of Toronto
T1 sequence (P04440 30-258): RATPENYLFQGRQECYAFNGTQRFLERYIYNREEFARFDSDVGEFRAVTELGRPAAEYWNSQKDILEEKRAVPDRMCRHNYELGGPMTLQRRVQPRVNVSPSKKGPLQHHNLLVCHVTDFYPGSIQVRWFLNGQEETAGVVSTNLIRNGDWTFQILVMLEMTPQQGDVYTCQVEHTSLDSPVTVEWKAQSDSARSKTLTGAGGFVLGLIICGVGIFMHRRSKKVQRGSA
T1 sequence (P20036 29-260): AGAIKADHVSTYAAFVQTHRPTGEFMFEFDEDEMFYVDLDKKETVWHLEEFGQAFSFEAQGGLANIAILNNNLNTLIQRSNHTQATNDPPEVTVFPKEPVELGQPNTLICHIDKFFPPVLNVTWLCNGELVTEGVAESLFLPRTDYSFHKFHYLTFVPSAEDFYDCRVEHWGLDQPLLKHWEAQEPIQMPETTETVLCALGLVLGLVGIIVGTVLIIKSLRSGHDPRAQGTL

[1] = T2-DP4 cells, overnight 37°C, competitor from 80 µM in 8 serial dilution steps, 500 nM FITC-labeled Oxy271-287, flow cytometry, n = 3 per peptide, read-out: IC50 (µM) Binding Assay

Molecule: CSCC[C@H](NC(=O)[C@H](CCC(N)=O)NC(=O)[C@@H]1CCCN1C(=O)[C@@H](NC(=O)[C@H](CC(=O)O)NC(=O)[C@@H](N)CS)C(C)C)C(=O)N[C@@H](CC(C)C)C(=O)N[C@@H](CCCCN)C(=O)N[C@@H](CC(C)C)C(=O)N[C@@H](C)C(=O)N[C@@H](CS)C(=O)N[C@@H](Cc1ccc(O)cc1)C(=O)N[C@@H](Cc1ccc(O)cc1)C(=O)N[C@@H](CCC(=O)O)C(=O)N[C@@H](Cc1ccccc1)C(=O)O [Peptide 94] (H-CDVPQMLKLACYYEF-OH; N-terminus and C-terminus assumed)
- Immunogenicity, % of responses (CD4+ T-cells): 0%
- Immunogenicity, No of responses (CD4+ T-cells): 0 of 9

Molecule: CC(/C=C/C(=O)NO)=C\[C@@H](C)C(=O)c1ccc(N(C)C)cc1 [TSA, trichostatin A]
- MHC-II expression, agent alone (PDAC cell lines): did not induce expression of MHC-II
- MHC-II expression, treatment together with IFN-γ (PDAC cell lines): enhanced MHC-II expression in FA6 cells, but not in 8988 T and MiaPaca-2 cells

Molecule: CC(=O)Nc1cccc(-n2c(=O)n(C3CC3)c(=O)c3c(Nc4ccc(I)cc4F)n(C)c(=O)c(C)c32)c1 [trametinib]
- MHC-II expression, agent alone (PDAC cell lines): induced a slight increase in the expression of MHC-II
- MHC-II expression, treatment together with IFN-γ (PDAC cell lines): increased MHC-II expression compared with IFN-γ alone
- Susceptibility of MiaPaca-2 cells to CD4+ T-cell recognition (MiaPaca-2 cells): rendered these cells susceptible to CD4+ T-cells recognition

Molecule: ALLKFWEDEGFVREE [Peptide 101]
- Immunogenicity, % of responses (CD4+ T-cells): 44%
- Immunogenicity, No of responses (CD4+ T-cells): 4 of 9

Molecule: FESEKYQDILMWNYR [Peptide 73]
- IC50 (HLA-DP4; [1]): 15.9 µM

Molecule: FNNFTVSFWLRVPKVSASHLE [TT 947-967, reference compound]
- IC50 (HLA-DP4): 3.05 µM

Molecule: FQHLHRLTYLKLWYN [Peptide 80]
- IC50 (HLA-DP4; [1]): 27.8 µM

Molecule: GKGLVYAQYLPKEQY [Peptide 105]
- IC50 (HLA-DP4; [1]): 47.9 µM

Molecule: GLQTLYSAALYHLTT [Peptide 93]
- IC50 (HLA-DP4; [1]): 21.6 µM

Molecule: HLVAFGISCFLGSGL [Peptide 77]
- Immunogenicity (in words) (CD4+ T-cells; 9 HLA-DP4-positive donors): most immunogenic
- Immunogenicity, % of responses (CD4+ T-cells): 88%
- Immunogenicity, No of responses (CD4+ T-cells): 8 of 9

Molecule: HTCVKFYIEGFEPGK [Peptide 74]
- Immunogenicity, % of responses (CD4+ T-cells): 11%
- Immunogenicity, No of responses (CD4+ T-cells): one out of nine and 1 of 9

Molecule: IGQVAAGAFANLRAL [Peptide 99]
- IC50 (HLA-DP4; [1]): 27.9 µM

Molecule: IVKGRFGEVWRGRWR [Peptide 103]
- Immunogenicity, % of responses (CD4+ T-cells): 22%
- Immunogenicity, No of responses (CD4+ T-cells): 2 of 9

Molecule: IYSLRNTEFKSALRR [Peptide 83]
- IC50 (HLA-DP4; [1]): 27.7 µM

Molecule: KFESEKYQDILMWNY [Peptide 71]
- IC50 (HLA-DP4; [1]): 28.9 µM

Molecule: LKFWEDEGFVREEED [Peptide 100]
- Immunogenicity, % of responses (CD4+ T-cells): 22%
- Immunogenicity, No of responses (CD4+ T-cells): 2 of 9

Molecule: LLKFWEDEGFVREEE [Peptide 98]
- Immunogenicity, % of responses (CD4+ T-cells): 11%
- Immunogenicity, No of responses (CD4+ T-cells): one out of nine and 1 of 9

Molecule: MIYSLRNTEFKSALR [Peptide 84]
- IC50 (HLA-DP4; [1]): 24.5 µM

Molecule: PMIYSLRNTEFKSAL [Peptide 92]
- IC50 (HLA-DP4; [1]): 6.36 µM

Molecule: PRGKGLVYAQYLPKE [Peptide 104]
- IC50 (HLA-DP4; [1]): 38.2 µM

Molecule: QGKYKAFSTCAFHLS [Peptide 70]
- IC50 (HLA-DP4; [1]): 31.5 µM

Molecule: QHLHRLTYLKLWYNH [Peptide 82]
- IC50 (HLA-DP4; [1]): 18.6 µM

Molecule: QPEGPYRVAGYSYVA [Peptide 87]
- IC50 (HLA-DP4; [1]): 31.9 µM

Molecule: RNTGLQTLYSAALYH [Peptide 97]
- IC50 (HLA-DP4; [1]): 22.6 µM

Molecule: RNTIGQVAAGAFANL [Peptide 86]
- IC50 (HLA-DP4; [1]): 37 µM

Molecule: SFQHLHRLTYLKLWY [Peptide 78]
- IC50 (HLA-DP4; [1]): 25.8 µM

Molecule: SIDRTVMYYGLLFIQ [Peptide 88]
- IC50 (HLA-DP4; [1]): 71 µM

Molecule: TAFTFQSSKEKLDVG [Peptide 109]
- Immunogenicity, % of responses (CD4+ T-cells): 11%
- Immunogenicity, No of responses (CD4+ T-cells): one out of nine and 1 of 9

Molecule: TDLHMLGAPVWAMLF [Peptide 96]
- IC50 (HLA-DP4; [1]): 10.9 µM

Molecule: TFRSPQKFGALIFLV [Peptide 91]
- IC50 (HLA-DP4; [1]): 24.8 µM

Molecule: TGLQTLYSAALYHLT [Peptide 102]
- IC50 (HLA-DP4; [1]): 14.3 µM

Molecule: YKAFSTCAFHLSVVS [Peptide 69]
- Binding to HLA-DP4 in cell-based binding assay (in words) (HLA-DP4; Peptides with IC50 < 200 µM were considered binders): not to bind

B1: IFN-γ: human recombinant IFN-γ (#570206; BioLegend) (protein, UniProt P01579 24-161, looked up)
Interferon gamma: QDPYVKEAENLKKYFNAGHSDVADNGTLFLGILKNWKEESDRKIMQSQIVSFYFKLFKNFKDDQSIQKSVETIKEDMNVKFFNSNKKKRDDFEKLTNYSVTDLNVQRKAIHELIQVMAELSPAAKTGKRKRSQMLFRG
- MHC class II surface expression (PDAC cell lines; 14 PDAC and circulating tumor cell lines, 50 ng/mL): upregulated in these cell lines and de novo expression was observed in six additional cell lines
- MHC-II expression, agent alone (PDAC cell lines): induced low expression of MHC-II
